Measured values taken from article PMC4210713, “Intragenic antimicrobial peptides from Theobroma cacao” (BMC Proceedings, 2014).
Where no end group is shown, it is not given here.

Tested on: Candida albicans ATCC 90028
Conditions: C. albicans ATCC 90028; broth microdilution, CLSI M27-A3; tested at 256 μM-0.5 μM; preliminary results

GFKDLLKGAAKALVKTVLF-NH2 [Ascaphin-8]
MIC (minimum inhibitory concentration): 8 µM
